# Laboratory results published in article PMC11253633, “Robust leishmanicidal upshot of some new diphenyl triazine-based molecules” (RSC Advances, 2024).
# “Also recorded” adds a separate entry of the source.
# Legend:
# L. amazonensis = system: L. amazonensis; parameters: method as in PMID 30817917; conditions: cited from earlier work
# L. infantum = system: L. infantum; parameters: method as in PMID 30817917; conditions: cited from earlier work
# L. donovani amastigotes = experiment: Anti-amastigote assay in infected THP-1 macrophages (Giemsa); assay type: cell-based, Leishmania donovani; conditions: for Inhibitory activity against amastigotes (in words): 100–6.25 μM, infected macrophages; for IC50: infected THP-1 macrophages, 72 h
# Experimental: To evaluate the anti-leishmanial effect of the compound T4 and T7 on intracellular L. donovani parasites, macrophage was infected with stationary -phase L. donovani for 6 h. The cells were then washed with saline to remove any non-internalised parasites. To assess the effect of compounds T4 and T7 on intracellular parasites at early stages of infection, macrophages were subsequently treated with T4 and T7 at concentrations of 100, 50, 25, 12.5, or 6.25 μM (refer to Table 3 and Fig. 7) for 6, 24, or 48 hours.
# THP-1 cells (5 × 10^5 cells per mL) were cultivated in RPMI-1640 media (Roswell Park Memorial Institute 1640) (Sigma-Aldrich, USA), supplemented with 10% fetal calf serum and maintained at 37 °C with 5% CO2 using phorbol ester as the inducer. These cells were added on circular coverslips (1 × 10^6 cells per mL). Promastigotes of L. donovani were introduced at 1 : 20 ratio. Treatment of the samples was carried out at doses of 100, 50, 25, 12.5, 6.25 and 3.125 μM/72 h. After being taken off, the coverslips were stained with Giemsa. The rate of macrophage infection was then ascertained.
# [1] = system: L. donovani promastigotes; experiment: Anti-leishmanial screening against L. donovani promastigotes at a single concentration (MTT); assay type: cell-based, Leishmania donovani; conditions: 72 h at 26 °C, MTT; for % Inhibition of L. donovani promastigotes: 100 μM; for inhibition at 100 µM: Leishmania donovani, 72 h
# Experimental: Each candidate was evaluated for its in vitro activity against reference strain (MHOM/IN/83/AG83) of extracellular promastigotes and intracellular amastigotes of L. donovani.
# Promastigotes were routinely cultured at 26 °C in medium M199 supplemented with 10% heat inactivated fetal bovine serum (FBS, Gibco Laboratories, Mumbai, India), penicillin 100 (IU mL^−1), streptomycin (100 μg mL^−1). Log phase promastigotes were sub-cultured every 72–96 h, the inoculum being 2 × 10^6 cells per mL.[29]
# The triazin hybrids series was evaluated for their antileishmanial ability against L. donovani promastigotes in vitro. Promastigotes of L. donovani (1× 10^6 cells per mL) in M199 medium were incubated at 26 °C for 72 h with each compound at a concentration of 100 μM. Miltefosine (MTF) was used as a reference drug, 0.2% DMSO as solvent control. Parasites with media alone were taken as control. Parasite viability was achieved by MTT assay after 72 h (Sharma et al. 2023).[30]
# [2] = system: Human macrophage THP-1 cell line; experiment: Cytotoxicity assay on THP-1 cell line (MTT); assay type: cell-based; conditions: 3.125–100 μM
# Experimental: The cell lines were incubated for 48 h at 37 °C in a CO2 incubator with increasing concentrations of test compounds and viability was ascertained. Each point or bar corresponds to the mean ± SEM of triplicate samples and is representative of one of three independent experiments.
# THP-1 human monocytic cells were grown at 37 °C in medium RPMI-1640 (pH 7.4, Sigma-Aldrich, St. Louis, MO, USA) supplemented with 10% heat-inactivated FBS for 48 to 72 h in a humidified atmosphere of 5% CO2 and sub-cultured in fresh RPMI-1640 medium at an average density 2 × 10^5 cells per mL (Sharma et al. 2023).[30]
# Human macrophage THP-1 cell line of 0.5 × 10^6 cells per mL seeded in RPMI-1640 medium (Sigma-Aldrich, USA) supplemented with 10% FBS (GIBCO) in presence of 5% CO2 at 37 °C in triplicate in 96 well culture plate. The cells were treated with two-fold serially diluted concentrations (100–3.125 μM) of the candidate molecules for 72 h. The IC50 was calculated using MTT assay (Sharma et al. 2023).[30]
# [3] = system: L. donovani promastigotes; experiment: Determination of promastigote cellular morphology (light microscopy); assay type: cell-based, Leishmania donovani; conditions: 25, 50 and 100 μM, 72 h, light microscopy 40×
# Experimental: For the evident of morphological changes, the promastigotes (Fig. 3 (C to L)) were incubated in presence of compound T7, T4 and control Ampho B with the different concentration 25 μM, 50 μM, 100 μM shown in (Fig. 3C to L) were analysed by light microscopy (40×magnification) compared to untreated cells (Fig. 4A).
# Fig. 4 Morphological Analysis of promastigote stage cells treated with compound T4 and MTF, compared to the untreated control (A) and DMSO treated control (B). Exponential-phase promastigotes (1 × 10^6 cells per mL) were incubated with 25 μm, 50 μm and 100 μm and analysed by light microscopy (40× magnification). (A) Untreated control (B) DMSO Treated cells (C–E) Ampho B, (F–H) T4 and T7 (I–K) at 25, 50, and 100 μM respectively. Scale bar in all is 10 μm.
# Variations in the cellular morphology of Leishmania parasites due to the treatment with compounds T4 and T7 was detected microscopically. Briefly, the promastigotes (1× 10^6 cells per mL) were incubated in the absence or presence of test compounds and MTF and AmphoB for 72 h with different concentrations and observed under 40× objective of a phase-contrast microscope. […] Data were recorded by using NIS-Elements imaging software.[32]
# [4] = system: L. donovani promastigotes; experiment: Dose-dependent anti-promastigote activity and determination of IC50 (MTT); assay type: cell-based; conditions: Leishmania donovani, 72 h, 3 days at 26 °C
# Experimental: MTF was used as a standard antileishmanial drug control. The cell viability was evaluated (by MTT Assay) and the mean percentage viability was calculated as follows: Mean cell number of treated parasites/mean cell number of untreated parasites × 100. The 50 and 90% inhibitory concentration (IC50) i.e., the concentration of drugs that decreased the cell growth by 50 and 90% respectively, was determined by graphical extrapolation after plotting the graph of percentage viability vs. concentration of the drug.[31]
# Parasite viability was not affected by DMSO (0.2%, data not shown) used as solvent control.[33]
# amastigote = system: amastigote; parameters: method as in PMID 29702355; conditions: read-out: IC50 against amastigote; cited from earlier work
# promastigote = system: promastigote; parameters: method as in PMID 29702355; conditions: read-out: IC50 against promastigote; cited from earlier work
SMILES,selectivity index against the axenic amastigotes (L. amazonensis; L. amazonensis axenic amastigotes),selectivity index against the promastigotes (L. amazonensis; L. amazonensis promastigotes),selectivity index against the axenic amastigotes (L. infantum; L. infantum axenic amastigotes),selectivity index against the promastigotes (L. infantum; L. infantum promastigotes),Percentage reduction of parasites (amastigote) (L. donovani amastigotes; 6.25 μM) [%],Percentage reduction of parasites (amastigote) (L. donovani amastigotes; 12.5 μM) [%],Percentage reduction of parasites (amastigote) (L. donovani amastigotes; 25 μM) [%],Percentage reduction of parasites (amastigote) (L. donovani amastigotes; 50 μM) [%],Percentage reduction of parasites (amastigote) (L. donovani amastigotes; 100 μM) [%],Inhibitory activity against amastigotes (in words) (L. donovani amastigotes),"IC50 (L. donovani amastigotes; Leishmania donovani, THP-1, 72 h) [µM]",IC50 (L. donovani amastigotes) [µM],% Inhibition of L. donovani promastigotes [1] [%],inhibition at 100 µM [1] [%],melting point [°C],Cytotoxicity on THP-1 human macrophages (in words) [2],Cellular morphological alterations in promastigotes (in words) [3],IC50 [4] [µM],IC50 (amastigote) [µM],IC50 (promastigote) [µM]
"CN(C)c1ccnc2cc(Cl)ccc12 [7-chloro-N, N-dimethylquinolin-4-amine]",74.3,86.4,137.6,154.6,–,–,–,–,–,–,–,–,–,–,–,–,–,–,–,–
"COc1ccc(C(=O)CCSc2nnc(-c3ccccc3)c(-c3ccccc3)n2)cc1OC [T4, 1-(3,4-Dimethoxyphenyl)-3-((5,6-diphenyl-1,2,4-triazin-3-yl)thio)propan-1-one]",–,–,–,–,66,68.80,70,74,78.0,good inhibitory activity; also recorded: capable of inhibiting the growth,5.18,7.19,99.67,> 90,210 to 212,nontoxic; also recorded: no adverse effects; also recorded: Absence of adverse toxicity,loss of flagella,1.07,–,–
"CC1CCN(c2cc(Sc3nnc(-c4ccccc4)c(-c4ccccc4)n3)ncn2)CC1 [T7, 3-((6-(4-Methylpiperidin-1-yl)pyrimidin-4-yl)thio)-5,6-diphenyl-1,2,4-triazine]",–,–,–,–,56,62,66,70.6,72,good inhibitory activity; also recorded: capable of inhibiting the growth,–,–,99.89,> 90,250 to 252,–,loss of flagella,1.16,–,–
Clc1cc(Cl)ncn1 [compound 5],–,–,–,–,–,–,–,–,–,–,–,–,–,–,–,–,–,–,< 25,< 25
